# In DBAASP:
# What was measured:
# Experiment in all cases: ≥ marks a high value that may be exact or a test limit, other limits are often not marked, values filed in µg/mL are converted to µM
# [1] = system: Pseudomonas aeruginosa ATCC 27853
# [2] = system: Escherichia coli NCTC 10418
# [3] = system: Enterococcus faecalis NCTC 12697
# [4] = system: Staphylococcus aureus ATCC 12493
# [5] = system: Klebsiella pneumoniae ATCC 43816
# [6] = system: Staphylococcus aureus
# [7] = system: Candida albicans NCYC 1467
# [8] = system: Staphylococcus aureus NCTC 10788
# [9] = system: Escherichia coli NCIMB 11843
# [10] = system: Staphylococcus aureus SA113
# [11] = system: Cronobacter muytjensii ATCC 51329
# [12] = system: Staphylococcus aureus NCTC 8325-4
# [13] = system: Klebsiella pneumoniae NCIMB 13218
# [14] = system: Salmonella enterica subsp. enterica serovar Typhimurium LT2
# [15] = system: Staphylococcus aureus RN4220
# [16] = system: Staphylococcus aureus RF122
# [17] = system: Cronobacter sakazakii DSM 4485
# [18] = system: Cronobacter sakazakii DPC 6440
# [19] = system: Staphylococcus aureus Newman
# [20] = system: Pseudomonas fluorescens NCIMB 9046
# [21] = system: Cronobacter sakazakii ATCC BAA-894
# [22] = system: Acinetobacter baumannii ATCC 19606
# [23] = system: Klebsiella pneumoniae ATCC 700603
# [24] = system: Escherichia coli BW25113
# [25] = system: Escherichia coli BW25113 ΔsbmA
# [26] = system: Escherichia coli
# [27] = system: Staphylococcus aureus ATCC 25923
# [28] = system: Salmonella typhimurium KCTC 2370
# [29] = system: Staphylococcus aureus ATCC 15752
# [30] = system: Escherichia coli KCTC 2223
# [31] = system: Candida albicans ATCC 10231
# [32] = system: Pseudomonas aeruginosa H636
smiles,measurement,setting,value
CC[C@H](C)[C@H](NC(=O)[C@H](CO)NC(=O)[C@H](CCCCN)NC(=O)[C@H](Cc1c[nH]c2ccccc12)NC(=O)[C@H](CC(C)C)NC(=O)[C@H](C)N)C(=O)N[C@@H](CC(C)C)C(=O)N[C@@H](CCCCN)C(=O)N[C@@H](CC(N)=O)C(=O)N[C@H](C(=O)NCC(=O)N[C@@H](CCCCN)C(=O)N[C@@H](C)C(=O)N[C@@H](C)C(=O)NCC(=O)N[C@@H](CCCCN)C(=O)N[C@@H](C)C(=O)N[C@H](C(=O)N[C@@H](CC(C)C)C(=O)N[C@@H](CC(N)=O)C(=O)N[C@@H](C)C(=O)N[C@H](C(=O)N[C@H](C(=O)N[C@@H](CC(=O)O)C(=O)N[C@@H](CCSC)C(=O)N[C@H](C(=O)N[C@@H](CC(N)=O)C(=O)N[C@@H](CCC(N)=O)C(N)=O)C(C)C)[C@@H](C)O)C(C)C)C(C)C)C(C)C [ALWKSILKNVGKAAGKAVLNAVTDMVNQ],MIC,[1],4 µM
same,MIC,[2],4 µM
same,MIC,[3],≥ 32 µM
same,MIC,[4],2 µM
same,MIC,[5],8 µM
same,MIC,[6],4 µM
same,MIC,[7],2 µM
same,MIC,[8],2 µM
CC[C@H](C)[C@H](N)C(=O)N[C@@H](C)C(=O)N[C@@H](C)C(=O)N[C@@H](CCC(N)=O)C(=O)NCC(=O)N[C@@H](CC(C)C)C(=O)N1CCC[C@H]1C(=O)N[C@@H](CCC(N)=O)C(=O)N[C@@H](CCC(=O)O)C(=O)O [IAAQGLPQE],MIC,[9],≥ 1250 µM
same,MIC,[10],≥ 1250 µM
same,MIC,[11],≥ 2500 µM
same,MIC,[12],≥ 1250 µM
same,MIC,[13],≥ 1250 µM
same,MIC,[14],≥ 1250 µM
same,MIC,[15],≥ 1250 µM
same,MIC,[16],≥ 1250 µM
same,MIC,[17],≥ 2500 µM
same,MIC,[18],≥ 312 µM
same,MIC,[19],≥ 1250 µM
same,MIC,[20],≥ 1250 µM
same,MIC,[21],≥ 2500 µM
CC[C@H](C)[C@H](NC(=O)[C@@H]1CCCN1C(=O)[C@H](CCCN=C(N)N)NC(=O)[C@H](CCCN=C(N)N)NC(=O)[C@H](Cc1c[nH]c2ccccc12)NC(=O)[C@@H](N)CCCN=C(N)N)C(=O)N[C@@H](CCCN=C(N)N)C(=O)N[C@@H](CCCN=C(N)N)C(=O)N[C@@H](CCCN=C(N)N)C(=O)N1CCC[C@H]1C(=O)N[C@H](C(=O)N[C@@H](CCCN=C(N)N)C(=O)N1CCC[C@H]1C(=O)N1CCC[C@H]1C(=O)N[C@@H](Cc1ccccc1)C(=O)N[C@@H](Cc1ccc(O)cc1)C(=O)N[C@@H](Cc1c[nH]c2ccccc12)C(=O)O)[C@@H](C)CC [RWRRPIRRRPIRPPFYW],MIC,[1],32 µM
same,MIC,[22],2 µM
same,MIC,[23],64 µM
same,MIC,[24],4 µM
same,MIC,[25],4 µM
same,MIC,[26],1.41 µM
same,MIC,[27],32 µM
CC(C)C[C@H](NC(=O)[C@H](CCCCN)NC(=O)[C@H](CCCN=C(N)N)NC(=O)[C@H](CCC(N)=O)NC(=O)[C@@H](N)CO)C(=O)N[C@@H](C)C(=O)N[C@@H](C)C(=O)N[C@@H](CCCCN)C(=O)N[C@@H](CC(C)C)C(=O)N[C@H](C(=O)N[C@@H](CO)C(=O)N[C@@H](CCCCN)C(=O)O)[C@@H](C)O [SQRKLAAKLTSK],MIC,[28],≥ 32 µM
same,MIC,[29],≥ 32 µM
same,MIC,[30],≥ 32 µM
same,MIC,[31],> 32 µM
same,MIC,[32],≥ 32 µM
